Laboratory results published in patent publication US20160032269A1, “BUFFERS FOR USE WITH POLYMERASES” (priority 2014, published 2016).
Entries after “also recorded” stand apart in the source; their conditions may differ.

Tests used:
[1] = Precipitate formation in 5× stock solution; assay type: physicochemical
Source text: (§1) In view of the surprising success of the reaction mixture comprising SDS and CTAB, a 5× stock solution was generated.

[2] = system: polymerase derived from two parental polymerases, Pfu and DeepVent, and fused with an Sso7d; test: Effect of surfactant additives on PCR yield (agarose gel); assay type: biochemical; conditions: for PCR yield: additive in PCR reaction mixture, 20 ng template DNA, FIG. 1
Method: The effect of various surfactants on polymerase activity and yield in a PCR reaction mixture was tested. A polymerase derived from two parental polymerases, Pfu and DeepVent, and fused with an Sso7d, was formulated in a variety of reaction mixtures in an effort to identify reaction components that improve PCR yield.
A reaction mixture comprising polymerase, Tris-HCL pH 9.0, KCl, ammonium sulfate, 20 ng template DNA and target primers was tested with one or more additional components added as follows (results shown in FIG. 1):
Ranges of concentration of CTAB and SDS were tested and additional components such as octyl b-D-glucopyranoside (OGP) and bovine serum albumin (BSA) were also tested. See, FIG. 2. The lanes of FIG. 2. are described in Table 2 below:
as §1

Structure (SMILES): C[C@H](CCC(=O)NCCC[N+](C)(C)CCCS(=O)(=O)[O-])[C@H]1CC[C@H]2[C@@H]3[C@H](O)C[C@@H]4C[C@H](O)CC[C@]4(C)[C@H]3C[C@H](O)[C@]12C [CHAPS, 3-[(3-cholamidopropyl)dimethylammonio]-1-propanesulfonate]
- precipitate in stock solution ([1]; 5× stock solution contained 1% CHAPS): no precipitate was observed
- precipitate in stock solution ([1]; CHAPS added to the 5× stock solution): prevented formation of a precipitate
- interference with PCR ([2]; CHAPS in 5× stock solution used in PCR reactions, data not shown): did not interfere with PCR

Structure (SMILES): CCCCCCCCCCCCCCCC[N+](C)(C)C.[Br-] [CTAB, cetyl trimethylammonium bromide]
- PCR yield [2]: did not improve PCR yield; also recorded: does not provide any apparent benefit

Structure (SMILES): CCCCCCCCCCCCOS(=O)(=O)[O-].[Na+] [SDS, sodium dodecyl sulfate]
- PCR yield ([2]; sulfate): did not improve PCR yield; also recorded: does not provide any apparent benefit
